Data published in patent US20190322981A1, “MEANS AND METHODS FOR THE GENERATION OF OLIGODENDROCYTES” (Westfaelische Wilhelms-Universitaet Muenster, priority 2016, published 2019).

Assays:
[1] = test system: MAPT-OL (iOL carrying the N279K MAPT mutation); assay: Stress-induced cell death: rotenone on O4+ iOL, cleaved CASPASE 3 / O4 double-staining; format: cell-based, human; conditions: rotenone 100, 250 and 500 nM, 48 h; all results combined, control cultures set to 100%
Method: To examine the effect of rotenone (Sigma) on the viability of iOL derived from either N279K MAPT or Ctrl cells O4^+ iOL were purified using the MACS technology after 21 days of differentiation and replated at a density of 8×10^3 cells per well into matrigel-coated 96-well plates. After another 6 days in DM, cells were treated with either vehicle (0.01% (v/v) DMSO) or rotenone dissolved in DMSO at three different concentrations (100 nM, 250 nM, 500 nM). […] Investigators were blinded for immunocytochemical analysis.
After 28 days of differentiation, O4^+ iOL harboring the N279K mutation (MAPT-OL) were morphologically indistinguishable from their gene corrected control cell lines (MAPT-GC-OL) (FIG. 7e) and featured similar differentiation efficiencies among all cell lines included (FIG. 7f). We next set out to investigate whether the N279K MAPT mutation induces an altered expression of TAU isoforms in iOL. We purified O4^+ iOL using FACS before RNA sample preparation. […] FTDP-17 patients display widespread neurodegeneration due to increased cellular vulnerability. […]

[2] = test system: iOL (SON-transduced human iPSC-derived NPC); assay: Compound screen: differentiation-promoting effect of drug candidates on iOL (O4 and MBP immunocytochemistry); format: cell-based; conditions: for formation of MBP+ mature iOL relative to T3-treated cultures: drug candidate at 0.5, 1, 5 μM; for toxic influence on iOL: at higher concentrations (tested 0.5, 1, 5 μM); for effect on formation of O4+ iOL compared to DMSO control: T3 60 ng/ml or drug candidate at 0.5, 1, 5 μM
Method: For immunocytochemical analysis, an equal volume of 4% PFA in PBS was added to the culture medium and cells were pre-fixed for 10 min at room temperature (RT). After removing the supernatant, cells were fixed for an additional 15 minutes with 4% PFA in PBS and washed three times with PBS. Fixed cells were permeabilized by adding 0.2% Triton X-100 (Sigma) in PBS for 15 min at RT (This step was omitted for NG2, O4 and GalC staining). Subsequently, blocking was performed by incubating the cells with 5% normal goat serum (NGS; Gibco) and 5% fetal calf serum (FCS; Gibco) for 30 min at RT. Primary antibodies were applied overnight at 4° C. in blocking solution. Following three washing steps with PBS, cells were incubated with Alexa Fluor conjugated secondary antibodies diluted in PBS for 1 h at RT. Cells were subsequently washed three times with PBS, including a Hoechst counterstaining for nuclei in the second washing step. Cells on glass coverslips were mounted in Dako Fluorescent Mounting Medium (Dako) and visualized on a Zeiss LSM700 confocal microscope. Cells on plastic cell culture plates were visualized on a Leica DM16000 B inverted microscope.
To assess the sensitivity of iOL towards differentiation promoting drugs, iPSC-derived NPC were transduced with concentrated SON virus particle as described above. Viral medium was removed after 24 h and replaced with GIM lacking T3. The end of the virus infection period was termed day 0. At day 5 of differentiation, cells were detached, singularized and reseeded at densities of 5×10^4 cells in matrigel-coated 48-well plates or 1.5×10^5 cells in 24-well plates containing matrigel-coated glass coverslips. Cells were allowed to recover in minimum DM consisting of DMEM-F12 with 1:200 N2 supplement, 1:100 B27 supplement lacking vitamin A, 1% penicillin/streptomycin/glutamine, 200 μM AA and 100 μM dbcAMP. After 24 h cells were treated with vehicle alone (0.01% (v/v) DMSO) as a negative control, 60 ng/ml T3 as a positive control, or with a drug candidate dissolved in DMSO at three different concentrations (0.5 μM, 1 μM, 5 μM) in minimum DM. The drug candidates comprised miconazole (Sigma), clobetasol (TCI), benztropine (Sigma), indometacin (Sigma), clemastine (Sigma) and oxybutynin (Sigma). Medium was changed every other day and cells were fixed in 4% PFA for immunocytochemical analysis after 21 days of treatment. Investigators were blinded for immunocytochemical analysis.
Identification of drugs inducing remyelination via promotion of oligodendroglial differentiation presents a promising approach for the treatment of demyelinating disorders like MS. Thus, we assessed whether iOL can be utilized to identify compounds promoting oligodendroglial differentiation. We selected six drug candidates (miconazole, clobetasol, benztropine, indometacin, clemastine and oxybutynin) which have been previously described to promote differentiation or myelination of rodent OL^1, 18-20. iOL cultures were treated with either vehicle (0.01% (v/v) DMSO) as a negative control, thyroid hormone (T3) as a positive control, or the drug candidate dissolved in DMSO at three different concentrations (0.5 μM, 1 μM, 5 μM) (FIG. 7a-d).

In the case of `C=C(C)[C@H]1Cc2c(ccc3c2O[C@@H]2COc4cc(OC)c(OC)cc4[C@@H]2C3=O)O1` [rotenone], the “average increase of cell death (cleaved CASPASE-3+ iOL) in MAPT-OL” value [1] is reported as 48.9±18.7%.

In the case of `C[C@H]1C[C@H]2[C@@H]3CCC4=CC(=O)C=C[C@]4(C)[C@@]3(F)[C@@H](O)C[C@]2(C)[C@@]1(O)C(=O)CCl` [clobetasol], the “formation of MBP+ mature iOL relative to T3-treated cultures” value ([2]; minimum DM, 21 days) is reported as “comparable to T3-treated cultures”.

`Clc1ccc(COC(Cn2ccnc2)c2ccc(Cl)cc2Cl)c(Cl)c1` (stereo not drawn) [miconazole] was tested, and the “increase of MBP+ cells compared to DMSO control cultures” value ([2]; 1 μM, minimum DM, 21 days) was “almost tenfold increase”, the “toxic influence on iOL” value ([2]; 21 days) was “toxic influence” and the “toxic effect on iOL” value ([2]; fivefold higher concentration than the effective 1 μM) was “toxic effect”. The “differentiation-promoting effect on iOL, ranked among the tested compounds” value ([2]; six drug candidates compared) was “strongest effect on iOL”.

For `N[C@@H](Cc1cc(I)c(Oc2ccc(O)c(I)c2)c(I)c1)C(=O)O` [T3, Triiodo-L-Thyronine], the “O4+ cells” value ([2]; 60 ng/ml T3 (positive control), minimum DM, 21 days, DMSO control 14.01±2.89%) was 28.25±3.47%.

For `CN1[C@@H]2CC[C@H]1C[C@@H](OC(c1ccccc1)c1ccccc1)C2` [benztropine], the “toxic influence on iOL” value ([2]; 21 days) was “toxic influence” and the “formation of MBP+ mature iOL relative to T3-treated cultures” value ([2]; minimum DM, 21 days) was “comparable to T3-treated cultures”.

`CCN(CC)CC#CCOC(=O)C(O)(c1ccccc1)C1CCCCC1` (stereo not drawn) [oxybutynin] was tested, and the “effect on formation of O4+ iOL compared to DMSO control” value ([2]; minimum DM, 21 days) was “failed to promote the formation of O4^+ iOL”.

In the case of `CN1CCC[C@@H]1CCO[C@](C)(c1ccccc1)c1ccc(Cl)cc1` [clemastine], the “effect on formation of O4+ iOL compared to DMSO control” value ([2]; minimum DM, 21 days) is reported as “failed to promote the formation of O4^+ iOL” and the “toxic influence on iOL” value ([2]; 21 days) is reported as “toxic influence”.
